Laboratory results from the supplement of paper PMC13380429.
± gives the standard deviation of the averaged measurements.

How the values were obtained:
Conditions in all cases: 72 h
U2OS [1] = assay: cell viability relative to DMSO; higher = less toxic
HepG2 [2] = assay: as above
Caco-2 [3] = assay: as above
Vero E6 [4] = assay: as above
Calu-3 [5] = assay: as above
U2OS [6] = assay: relative viability EC50 (midpoint between 100% and the lowest measured viability); higher = less toxic
HepG2 [7] = assay: as above
Caco-2 [8] = assay: as above
Vero E6 [9] = assay: as above
Calu-3 [10] = assay: as above
U2OS [11] = assay: drug sensitivity score (DSS) for viability; higher = more toxic; extreme values may be limits of the assay
HepG2 [12] = assay: as above
Caco-2 [13] = assay: as above
Vero E6 [14] = assay: as above
Calu-3 [15] = assay: as above

SMILES | cell viability (U2OS [1]; 1 nM) [%] | cell viability (U2OS [1]; 10 nM) [%] | cell viability (U2OS [1]; 100 nM) [%] | cell viability (U2OS [1]; 1000 nM) [%] | cell viability (U2OS [1]; 10000 nM) [%] | cell viability (HepG2 [2]; 1 nM) [%] | cell viability (HepG2 [2]; 10 nM) [%] | cell viability (HepG2 [2]; 100 nM) [%] | cell viability (HepG2 [2]; 1000 nM) [%] | cell viability (HepG2 [2]; 10000 nM) [%] | cell viability (Caco-2 [3]; 1 nM) [%] | cell viability (Caco-2 [3]; 10 nM) [%] | cell viability (Caco-2 [3]; 100 nM) [%] | cell viability (Caco-2 [3]; 1000 nM) [%] | cell viability (Caco-2 [3]; 10000 nM) [%] | cell viability (Vero E6 [4]; 1 nM) [%] | cell viability (Vero E6 [4]; 10 nM) [%] | cell viability (Vero E6 [4]; 100 nM) [%] | cell viability (Vero E6 [4]; 1000 nM) [%] | cell viability (Vero E6 [4]; 10000 nM) [%] | cell viability (Calu-3 [5]; 1 nM) [%] | cell viability (Calu-3 [5]; 10 nM) [%] | cell viability (Calu-3 [5]; 100 nM) [%] | cell viability (Calu-3 [5]; 1000 nM) [%] | cell viability (Calu-3 [5]; 10000 nM) [%] | relative viability EC50 (U2OS [6]) [µM] | relative viability EC50 (HepG2 [7]) [µM] | relative viability EC50 (Caco-2 [8]) [µM] | relative viability EC50 (Vero E6 [9]) [µM] | relative viability EC50 (Calu-3 [10]) [µM] | drug sensitivity score (U2OS [11]) | drug sensitivity score (HepG2 [12]) | drug sensitivity score (Caco-2 [13]) | drug sensitivity score (Vero E6 [14]) | drug sensitivity score (Calu-3 [15])
N[C@H]1CCN(O)C1=O [HA-966-(S)-(-)] | 97.6 ± 2.7 | 96.8 ± 2 | 98.5 ± 3.2 | 96.9 ± 0.71 | 97.2 ± 3.2 | 93.2 | 107 | 100 | 104 | 106 | 103 ± 1.2 | 86.4 ± 7.8 | 106 ± 5.9 | 96 ± 3.5 | 102 ± 5.2 | 96.8 ± 9.3 | 95.3 | 93.35 ± 0.35 | 97.6 ± 3.4 | 102 ± 4.7 | 104 ± 4.8 | 95.8 ± 4.6 | 99.6 ± 2.1 | 94.7 ± 7.3 | 97.6 ± 0.71 | > 10 | > 10 | > 10 | > 10 | > 10 | 0 | 0 | 0 | 0 | 0
CCOC(=O)[C@@H](C)Oc1cccc2c(=O)n(CC(=O)Nc3ccc4c(c3)OCCO4)ccc12 | 98.3 | 101 | 95.8 | 105 | 88.9 | 106 | 92.7 | 98.6 | 91.4 | 102 | 90.5 | 113 | 95.5 | 101 | 83.5 | 101 | 99.4 | 99 | 98.5 | 99.1 | 92.5 | 88.6 | 80.8 | 95.5 | 89.8 | > 10 | > 10 | > 10 | > 10 | > 10 | 0 | 0 | 0.3 | 0 | 0
O=[N+]([O-])c1cc(Cl)ccc1S(=O)(=O)c1ccccc1 [BTB1] | 98.5 | 95.4 | 102 | 103 | 102 | 99.2 | 103 | 82.7 | 88.1 | 108 | 95.8 | 90.2 | 97.5 | 98.6 | 100 | 97 | 94.4 | 93.9 | 97.9 | 101 | 97.1 | 98.2 | 107 | 103 | 115 | > 10 | > 10 | > 10 | > 10 | > 10 | 0 | 0 | 0 | 0 | 0
CC(C)(C)c1cc(C=C(C#N)C#N)cc(C(C)(C)C)c1O [tyrphostin-A9] | 106 | 97.9 | 100 | 90.6 | 22.4 | 104 | 101 | 98.7 | 74.3 | 8.9 | 96.5 | 98.3 | 95.8 | 70.1 | 20.5 | 100 | 106 | 97.8 | 97.2 | 17.5 | 97.4 | 96.3 | 99 | 92.8 | 44.1 | 2.18 | 1.45 | 1.29 | 2.91 | 2.12 | 5.9 | 8.9 | 8.1 | 5 | 4.2
COc1ncc(-c2ccc3c(Nc4cc(Oc5cc(F)cc(F)c5)cc(C(=O)O)c4)c(S(=O)(=O)NC4CC4)cnc3c2)c(OC)n1 | 104 | 104 | 98.8 | 93.2 | 99.8 | 97 | 107 | 96.8 | 101 | 85.6 | 103 | 100 | 85 | 92.2 | 97.5 | 101 | 101 | 99.9 | 104 | 101 | 95.3 | 107 | 87.9 | 96.3 | 102 | > 10 | > 10 | > 10 | > 10 | > 10 | 0 | 0.2 | 0 | 0 | 0
O=C(O)COCCN1CCN(C(c2ccccc2)c2ccc(Cl)cc2)CC1 (stereo not given) [cetirizine] | 95.5 ± 3.3 | 98.05 ± 0.071 | 96.2 ± 0.14 | 93.8 ± 4.5 | 102 ± 1.4 | 100 ± 1.4 | 100 ± 1.1 | 101 ± 5.7 | 103 ± 3.5 | 102 ± 4.1 | 91 ± 0.14 | 81.8 ± 7.7 | 97.8 ± 6.4 | 88 ± 12 | 107 ± 5.2 | 93.7 ± 5.7 | 97.3 ± 1.6 | 88.5 ± 4.5 | 95.3 ± 2.4 | 100 ± 1.8 | 94.7 ± 5.4 | 105 ± 1.1 | 100.25 ± 0.071 | 95.8 ± 8.7 | 102 ± 2.5 | > 10 | > 10 | > 10 | > 10 | > 10 | 0 | 0 | 0 | 0 | 0
CC1=C(/C=C/C(C)=C/C=C/C(C)=C/C=C/C=C(C)/C=C/C=C(C)/C=C/C2=C(C)C(=O)[C@@H](O)CC2(C)C)C(C)(C)C[C@H](O)C1=O [astaxanthin] | 97.8 | 104 | 100 | 93.6 | 98.4 | 84.3 | 102 | 98.9 | 102 | 107 | 103 | 109 | 84 | 84.8 | 81.9 | 102 | 96.9 | 103 | 101 | 92.1 | 98.9 | 97.6 | 101 | 96.4 | 99.6 | > 10 | > 10 | > 10 | > 10 | > 10 | 0 | 0 | 3.6 | 0 | 0
